Experimental data from patent publication US11970453B1, “2-ethoxy-8-(4-fluorobenzylidene)-4-(4-fluorophenyl)-5,6,7,8-tetrahydroquinoline-3-carbonitrile as an antimicrobial compound” (KING FAISAL UNIVERSITY, priority 2023, dated 2024).

Legend:
[1] = test system: Candida albicans; assay: Antimicrobial screening, agar dilution method; format: cell-based; conditions: after 10, 20, 40 and 60 minutes at all dilutions 1:100, 1:200, 1:400, 1:800
Experimental: (§1) The antibacterial properties of the synthesized compound 2-ethoxy-8-(4-fluorobenzylidene)-4-(4-fluorophenyl)-5,6,7,8-tetrahydroquinoline-3-carbonitrile were studied by the method of agar dilution. Test solutions of each compound was prepared in concentration of 1% using dimethylformamide as a solvent then they are diluted in physiological solution to obtain the final experimental dilutions 1:100, 1:200, 1:400, 1:800. The effects of these substances are compared with furacillin in a controllable study. The testing microbes used were gram positive bacteria Staphylococcus aureus, gram negative bacteria Pseudomonas aeruginosa and Escherichia coli and Candida albicans fungus. The experiments used for this survey were meat-pentonlu agar (EPA) for cultivation of bacteria and Saburo environment for the fungus. Each experiment used 1 mL of test solution on each plate […]. Two drops of emulsified with microbes feel were added. All experimental samples were taken from the agar after 10, 20, 40, 60 minutes in the environment on the basis of Patrk planted. The bacteria were cultivated at a temperature of 37° C. for 1 day and the mushroom was kept in a thermostat for […] at a temperature of 28° C. Then results were checked.

[2] = test system: Pseudomonas aeruginosa; assay: Antimicrobial screening, agar dilution method; format: cell-based; conditions: after 10, 20, 40 and 60 minutes at all dilutions 1:100, 1:200, 1:400, 1:800
Experimental: as §1

[3] = test system: Escherichia coli; assay: Antimicrobial screening, agar dilution method; format: cell-based; conditions: after 10, 20, 40 and 60 minutes at all dilutions 1:100, 1:200, 1:400, 1:800
Experimental: as §1

[4] = test system: Staphylococcus aureus; assay: Antimicrobial screening, agar dilution method; format: cell-based; conditions: after 10, 20, 40 and 60 minutes at all dilutions 1:100, 1:200, 1:400, 1:800
Experimental: as §1

melting point: 151 to 153 °C
SMILES: CCOc1nc2c(c(-c3ccc(F)cc3)c1C#N)CCC/C2=C\c1ccc(F)cc1 [2-ethoxy-8-(4-fluorobenzylidene)-4-(4-fluorophenyl)-5,6,7,8-tetrahydroquinoline-3-carbonitrile]
inhibition activity [1]: highest inhibition activity
inhibition activity [2]: highest inhibition activity
inhibition activity [3]: highest inhibition activity
inhibition activity [4]: highest inhibition activity
